≈ marks a conversion by molar mass, not a printed value. Where two headings read alike, the source gives them in different places.
Key:
Assay in all cases: Minimal growth inhibitory concentration (MIC), serial dilution in broth, agent alone
Type in all cases: cell-based
[1] = system: Streptococcus mutans ATCC 25175; conditions: for MIC: Streptococcus mutans, ATCC25175, 48 h, read-out: MIC (micro g/ml); for MIC in w/w%: chlorhexidine as free base concentration
Method: (§1) MINIMAL GROWTH INHIBITORY CONCENTRATION
(§2) The minimal inhibitory concentration (MIC) of the test compound is the minimum concentration of compound required to inhibit growth of the test organism. The MIC is determined by serially diluting the test solution through tubes of sterile broth. The tubes are inoculated and incubated at 37°C for 48 hours. At the end of the incubation time, growth is checked macroscopically. The lowest concentration of test compound to inhibit growth is the MIC.

[2] = system: Actinomyces viscosus T14V; conditions: Experiment 6, A. viscosus, chlorhexidine as free base concentration
Method: as §1, §2

[3] = system: Candida albicans ATCC 18804; conditions: Experiment 7, C. Albicans, chlorhexidine as free base concentration
Method: as §1, §2

[4] = system: Streptococcus sanguis ATCC 19558; conditions: Experiment 5, S. sanguis, chlorhexidine as free base concentration
Method: as §1, §2

[5] = Experiments A-D, agent alone, 37°C, 48 hours

In the case of CC12CCC(CC1)C(C)(C)O2 [Eucalyptol], the MIC [1, 5] is reported as 58 µg/mL (≈ 376 µM).
Work on CC1CCC(C(C)C)C(O)C1 (stereo not drawn) [Menthol] yielded an MIC [1] of 30 µg/mL (≈ 192 µM).
With [H]/N=C(\N/C(=N/[H])NCCCCCCNC(=N)NC(=N)Nc1ccc(Cl)cc1)Nc1ccc(Cl)cc1 [Chlorhexidine, 1,6-di(p-chlorophenylbiguanido)hexane] the “MIC (w/w%)” value [2] was 4.4x10^-5 w/w%, the “MIC (w/w%)” value [3] was 3.5x10^-4 w/w% and the MIC in w/w% ([1]; Experiment 1, agent alone, 37°C, 48 hours) was 2.2x10^-5 w/w%. The MIC in w/w% ([1]; Experiment 2, agent alone, 37°C, 48 hours) was 2.2x10^-5 w/w%, the MIC in w/w% ([1]; Experiment 3, agent alone, 37°C, 48 hours) was 2.8x10^-5 w/w% and the MIC in w/w% ([1]; Experiment 4, agent alone, 37°C, 48 hours) was 2.25x10^-5 w/w%. For the same molecule, the MIC [1, 5] was 0.25 µg/mL (≈ 0.495 µM) and the “MIC (w/w%)” value [4] was 3.4x10^-4 w/w%.
For COC(=O)c1ccccc1O [Methyl Salicylate], the MIC [1] was 35 µg/mL (≈ 230 µM).
Work on Cc1ccc(C(C)C)c(O)c1 [Thymol] yielded an MIC [1, 5] of 80 µg/mL (≈ 533 µM).
